In patent US9738634B2, “Heterocyclic amide compound and herbicide” (SYNGENTA PARTICIPATIONS AG, priority 2013, dated 2017):

What was measured:
Format in all cases: in vivo
[1] = test system: redroot pigweed; assay: Test Example 3: weedkilling efficacy through soil treatment; L: redroot pigweed; details: treatment dosage 315 g/ha
Procedure, shortened: (§1)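 Crop and weed responses were judged three weeks after a uniform surface spray of the water-diluted emulsion at the given g/ha rate. Seeds sat beneath about 1.5 cm of sterilized diluvial soil, and boxes stood in a greenhouse at 25 to 30° C.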

[2] = test system: chickweed; assay: Test Example 3: weedkilling efficacy through soil treatment; N: chickweed; details: treatment dosage 315 g/ha
Procedure, shortened: as §1

[3] = test system: Italian ryegrass; assay: Test Example 4: weedkilling efficacy by foliar treatment; I: Italian ryegrass; details: treatment dosage 315 g/ha
Procedure, shortened: (§2)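 Seeds are spot-sown into sterilized diluvial soil and covered with about 1.5 cm of soil. After 14 days' greenhouse growth at 25 to 30° C, plants are sprayed on stems and leaves with diluted emulsion at the stated g/ha rate, then scored at 3 weeks.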

[4] = test system: crabgrass; assay: Test Example 4: weedkilling efficacy by foliar treatment; D: crabgrass; details: treatment dosage 315 g/ha
Procedure, shortened: as §2

[5] = test system: fig-leafed goosefoot; assay: Test Example 4: weedkilling efficacy by foliar treatment; M: fig-leafed goosefoot; details: treatment dosage 315 g/ha
Procedure, shortened: as §2

[6] = test system: transplanted rice; assay: Test Example 1: preemergent weed treatment in the submerged state, effect on crop; a: transplanted rice; details: treatment dosage 252 g/ha
Procedure, shortened: (§3)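 Pre-emergence paddy test: weed seeds sown in submerged alluvial soil (4 cm water), 2.5-leaf rice transplanted, water-diluted emulsion applied to water surface at sowing at stated g/ha. Scored at 3 weeks, greenhouse 25–30 °C.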

[7] = test system: corn; assay: Test Example 3: soil treatment, effect on crop; c: corn; details: treatment dosage 315 g/ha
Procedure, shortened: as §1

[8] = test system: beet; assay: Test Example 4: foliar treatment, effect on crop; f: beet; details: treatment dosage 315 g/ha
Procedure, shortened: as §2

[9] = test system: barnyard grass; assay: Test Example 1: weedkilling efficacy, preemergent weed treatment in the submerged state; A: barnyard grass; details: treatment dosage 252 g/ha
Procedure, shortened: as §3

[10] = test system: crabgrass; assay: Test Example 3: weedkilling efficacy through soil treatment; D: crabgrass; details: treatment dosage 315 g/ha
Procedure, shortened: as §1

[11] = test system: barnyard grass; assay: Test Example 2: weedkilling efficacy, growth period weed treatment in the submerged state; A: barnyard grass; details: treatment dosage 252 g/ha
Procedure, shortened: (§4)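 Seedlings at 1-2 leaves in 4 cm-deep submerged alluvial soil received emulsion formulations on the water surface, dosed per hectare; effects were judged 3 weeks on.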

[12] = test system: bulrush; assay: Test Example 1: weedkilling efficacy, preemergent weed treatment in the submerged state; B: bulrush; details: treatment dosage 252 g/ha
Procedure, shortened: as §3

[13] = test system: directly sown rice; assay: Test Example 3: soil treatment, effect on crop; b: directly sown rice; details: treatment dosage 315 g/ha
Procedure, shortened: as §1

[14] = test system: catchweed; assay: Test Example 4: weedkilling efficacy by foliar treatment; O: catchweed; details: treatment dosage 315 g/ha
Procedure, shortened: as §2

[15] = test system: black-grass; assay: Test Example 4: weedkilling efficacy by foliar treatment; H: black-grass; details: treatment dosage 315 g/ha
Procedure, shortened: as §2

[16] = test system: green foxtail; assay: Test Example 3: weedkilling efficacy through soil treatment; E: green foxtail; details: treatment dosage 315 g/ha
Procedure, shortened: as §1

[17] = test system: directly sown rice; assay: Test Example 4: foliar treatment, effect on crop; b: directly sown rice; details: treatment dosage 315 g/ha
Procedure, shortened: as §2

[18] = test system: chickweed; assay: Test Example 4: weedkilling efficacy by foliar treatment; N: chickweed; details: treatment dosage 315 g/ha
Procedure, shortened: as §2

[19] = test system: green foxtail; assay: Test Example 4: weedkilling efficacy by foliar treatment; E: green foxtail; details: treatment dosage 315 g/ha
Procedure, shortened: as §2

[20] = test system: catchweed; assay: Test Example 3: weedkilling efficacy through soil treatment; O: catchweed; details: treatment dosage 315 g/ha
Procedure, shortened: as §1

[21] = test system: beet; assay: Test Example 3: soil treatment, effect on crop; f: beet; details: treatment dosage 315 g/ha
Procedure, shortened: as §1

[22] = test system: Italian ryegrass; assay: Test Example 3: weedkilling efficacy through soil treatment; I: Italian ryegrass; details: treatment dosage 315 g/ha
Procedure, shortened: as §1

[23] = test system: birds-eye speedwell; assay: Test Example 3: weedkilling efficacy through soil treatment; p: birds-eye speedwell; details: treatment dosage 315 g/ha
Procedure, shortened: as §1

[24] = test system: wheat; assay: Test Example 3: soil treatment, effect on crop; e: wheat; details: treatment dosage 315 g/ha
Procedure, shortened: as §1

[25] = test system: black-grass; assay: Test Example 3: weedkilling efficacy through soil treatment; H: black-grass; details: treatment dosage 315 g/ha
Procedure, shortened: as §1

[26] = test system: wild oat; assay: Test Example 3: weedkilling efficacy through soil treatment; G: wild oat; details: treatment dosage 315 g/ha
Procedure, shortened: as §1

[27] = test system: Indian mallow; assay: Test Example 3: weedkilling efficacy through soil treatment; K: Indian mallow; details: treatment dosage 315 g/ha
Procedure, shortened: as §1

[28] = test system: fig-leafed goosefoot; assay: Test Example 3: weedkilling efficacy through soil treatment; M: fig-leafed goosefoot; details: treatment dosage 315 g/ha
Procedure, shortened: as §1

[29] = test system: oval-leafed pondweed; assay: Test Example 1: weedkilling efficacy, preemergent weed treatment in the submerged state; C: oval-leafed pondweed; details: treatment dosage 252 g/ha
Procedure, shortened: as §3

[30] = test system: wild oat; assay: Test Example 4: weedkilling efficacy by foliar treatment; G: wild oat; details: treatment dosage 315 g/ha
Procedure, shortened: as §2

[31] = test system: wheat; assay: Test Example 4: foliar treatment, effect on crop; e: wheat; details: treatment dosage 315 g/ha
Procedure, shortened: as §2

[32] = test system: corn; assay: Test Example 4: foliar treatment, effect on crop; c: corn; details: treatment dosage 315 g/ha
Procedure, shortened: as §2

[33] = test system: soybean; assay: Test Example 4: foliar treatment, effect on crop; d: soybean; details: treatment dosage 315 g/ha
Procedure, shortened: as §2

[34] = test system: oval-leafed pondweed; assay: Test Example 2: weedkilling efficacy, growth period weed treatment in the submerged state; C: oval-leafed pondweed; details: treatment dosage 252 g/ha
Procedure, shortened: as §4

[35] = test system: redroot pigweed; assay: Test Example 4: weedkilling efficacy by foliar treatment; L: redroot pigweed; details: treatment dosage 315 g/ha
Procedure, shortened: as §2

[36] = test system: soybean; assay: Test Example 3: soil treatment, effect on crop; d: soybean; details: treatment dosage 315 g/ha
Procedure, shortened: as §1

[37] = test system: Indian mallow; assay: Test Example 4: weedkilling efficacy by foliar treatment; K: Indian mallow; details: treatment dosage 315 g/ha
Procedure, shortened: as §2

[38] = test system: bulrush; assay: Test Example 2: weedkilling efficacy, growth period weed treatment in the submerged state; B: bulrush; details: treatment dosage 252 g/ha
Procedure, shortened: as §4

CC1=C(c2ccccc2)C(=O)N(C(C)(C)C(=O)Nc2cc(C(F)(F)F)ccn2)CO1 [B-2-57]
L (redroot pigweed) weedkilling efficacy grade [1]: 5 (weed kill ratio 90% or more, (practically complete withering)) | N (chickweed) weedkilling efficacy grade [2]: 4 (weed kill ratio 70% or more, less than 90%) | I (Italian ryegrass) weedkilling efficacy grade [3]: 5 (weed kill ratio 90% or more, (practically complete withering)) | D (crabgrass) weedkilling efficacy grade [4]: 5 (weed kill ratio 90% or more, (practically complete withering)) | M (fig-leafed goosefoot) weedkilling efficacy grade [5]: 3 (weed kill ratio 40% or more, less than 70%) | a (transplanted rice) effect on crop grade [6]: 4 (weed kill ratio 70% or more, less than 90%) | c (corn) effect on crop grade [7]: 4 (weed kill ratio 70% or more, less than 90%) | f (beet) effect on crop grade [8]: 3 (weed kill ratio 40% or more, less than 70%) | A (barnyard grass) weedkilling efficacy grade [9]: 5 (weed kill ratio 90% or more, (practically complete withering)) | D (crabgrass) weedkilling efficacy grade [10]: 5 (weed kill ratio 90% or more, (practically complete withering)) | A (barnyard grass) weedkilling efficacy grade [11]: 5 (weed kill ratio 90% or more, (practically complete withering)) | B (bulrush) weedkilling efficacy grade [12]: 5 (weed kill ratio 90% or more, (practically complete withering)) | b (directly sown rice) effect on crop grade [13]: 5 (weed kill ratio 90% or more, (practically complete withering)) | O (catchweed) weedkilling efficacy grade [14]: 5 (weed kill ratio 90% or more, (practically complete withering)) | H (black-grass) weedkilling efficacy grade [15]: 5 (weed kill ratio 90% or more, (practically complete withering)) | E (green foxtail) weedkilling efficacy grade [16]: 5 (weed kill ratio 90% or more, (practically complete withering)) | b (directly sown rice) effect on crop grade [17]: 5 (weed kill ratio 90% or more, (practically complete withering)) | N (chickweed) weedkilling efficacy grade [18]: 3 (weed kill ratio 40% or more, less than 70%) | E (green foxtail) weedkilling efficacy grade [19]: 5 (weed kill ratio 90% or more, (practically complete withering)) | O (catchweed) weedkilling efficacy grade [20]: 5 (weed kill ratio 90% or more, (practically complete withering)) | f (beet) effect on crop grade [21]: 3 (weed kill ratio 40% or more, less than 70%) | I (Italian ryegrass) weedkilling efficacy grade [22]: 5 (weed kill ratio 90% or more, (practically complete withering)) | P (birds-eye speedwell) weedkilling efficacy grade [23]: 5 (weed kill ratio 90% or more, (practically complete withering)) | e (wheat) effect on crop grade [24]: 0 (weed kill ratio 5% or less (practically no effect)) | H (black-grass) weedkilling efficacy grade [25]: 5 (weed kill ratio 90% or more, (practically complete withering)) | G (wild oat) weedkilling efficacy grade [26]: 5 (weed kill ratio 90% or more, (practically complete withering)) | K (Indian mallow) weedkilling efficacy grade [27]: 5 (weed kill ratio 90% or more, (practically complete withering)) | M (fig-leafed goosefoot) weedkilling efficacy grade [28]: 4 (weed kill ratio 70% or more, less than 90%) | C (oval-leafed pondweed) weedkilling efficacy grade [29]: 5 (weed kill ratio 90% or more, (practically complete withering)) | G (wild oat) weedkilling efficacy grade [30]: 5 (weed kill ratio 90% or more, (practically complete withering)) | e (wheat) effect on crop grade [31]: 1 (weed kill ratio 5% or more, less than 20%) | c (corn) effect on crop grade [32]: 5 (weed kill ratio 90% or more, (practically complete withering)) | d (soybean) effect on crop grade [33]: 4 (weed kill ratio 70% or more, less than 90%) | C (oval-leafed pondweed) weedkilling efficacy grade [34]: 5 (weed kill ratio 90% or more, (practically complete withering)) | L (redroot pigweed) weedkilling efficacy grade [35]: 5 (weed kill ratio 90% or more, (practically complete withering)) | d (soybean) effect on crop grade [36]: 4 (weed kill ratio 70% or more, less than 90%) | K (Indian mallow) weedkilling efficacy grade [37]: 5 (weed kill ratio 90% or more, (practically complete withering)) | B (bulrush) weedkilling efficacy grade [38]: 5 (weed kill ratio 90% or more, (practically complete withering))
